Laboratory results reported in patent publication US20240131007A1, “METHODS AND COMPOSITIONS FOR PICORNAVIRUS ANTI-VIRAL AGENTS” (University of Connecticut, priority 2022, published 2024).
Where two headings read alike, the source gives them in different places.

Experiments:
[1] = in vitro; settings: African green monkey; for CC50 at 3 days: CC50 (μM)
[2] = system: EV-A71; test: CPE inhibition assay (Cell Titer Glo) against EV-A71 in Vero cells; type: cell-based, Enterovirus A71; settings: for IC50: Enterovirus A, EVA71, EV-A71, Vero cells
[3] = Table 10, Scaffold 1, read-out: IC50
[4] = Table 10, Scaffold 1, CC50/IC50
[5] = Table 13, Scaffold 4, read-out: IC50
[6] = Table 13, Scaffold 4, CC50/IC50
[7] = Table 11, Scaffold 2, read-out: IC50
[8] = Table 12, Scaffold 3, read-out: IC50
[9] = Table 12, Scaffold 3, CC50/IC50

Work on `O=C(CSCc1ccc([N+](=O)[O-])cc1)Nc1ccc(-c2nc3ccccc3[nH]2)cc1` [Compound 21, N-[4-(1H-benzimidazol-2-yl)phenyl]-2-[(4-nitrobenzyl)thio]acetamide] yielded a CC50 at 3 days [1] greater than 400 µM and an IC50 [2, 3] greater than 25 µM.
For `CC(=O)Nc1ccc(-c2nc3cc(C)ccc3[nH]2)cc1` [Compound 29, N-[4-(5-methyl-1H-benzimidazol-2-yl)phenyl]acetamide], the CC50 at 3 days [1] was greater than 400 µM, the IC50 [2, 3] was 69.3 µM and the “Selectivity Index” value [2, 4] was greater than 5.77.
In the case of `O=C(Nc1ccc2[nH]c(-c3ccc(Br)o3)nc2c1)c1ccccc1` [Compound T4, N-[2-(5-bromo-2-furyl)-1H-benzimidazol-5-yl]benzamide], the CC50 at 3 days [1] is reported as greater than 200 µM, the IC50 ([2]; Table 6, read-out: IC50) is reported as 12.2 µM and the “Selectivity Index” value ([2]; Table 6, CC50/IC50) is reported as greater than 16.33.
For `O=C(Nc1ccc(-c2nc3ccccc3[nH]2)cc1)c1ccccn1` [Compound 8, N-[4-(1H-benzimidazol-2-yl)phenyl]-2-pyridinecarboxamide], the CC50 at 3 days [1] was 244 µM, the IC50 ([2]; Table 8, virus-induced CPE, read-out: IC50) was 1.46 µM and the “Selectivity Index” value ([2]; Table 8, CC50/IC50) was 167.19. The “Selectivity Index” value [2, 4] was 167.19.
For `O=C(Nc1cccc(-c2nc3ccccc3[nH]2)c1)c1cc2ccccc2o1` [Compound 67, N-[3-(1H-benzimidazol-2-yl)phenyl]-1-benzofuran-2-carboxamide], the CC50 at 3 days [1] was 43 µM, the IC50 [2, 5] was 14.9 µM and the “Selectivity Index” value [2, 6] was 2.89.
`Cc1ccc(-c2nc3ccccc3[nH]2)cc1NC(=O)c1ccco1` [Compound 60, N-[5-(1H-benzimidazol-2-yl)-2-methylphenyl]-2-furamide] gave a CC50 at 3 days [1] greater than 400 µM and an IC50 [2, 5] greater than 25 µM.
In the case of `COc1cc(C)c(S(=O)(=O)NCCc2c(C)[nH]c3ccccc23)cc1C` [Compound T2, 4-methoxy-2,5-dimethyl-N-[2-(2-methyl-1H-indol-3-yl)ethyl]benzenesulfonamide], the CC50 at 3 days [1] is reported as 85.4 µM, the IC50 ([2]; Table 6, read-out: IC50) is reported as 17 µM and the “Selectivity Index” value ([2]; Table 6, CC50/IC50) is reported as 5.03.
With `O=C(Nc1ccc(-c2nc3ccccc3[nH]2)cc1)c1ccc(Br)o1` [Compound 11, N-[4-(1H-benzimidazol-2-yl)phenyl]-5-bromo-2-furamide] the CC50 at 3 days [1] was 1650 µM, the IC50 [2, 3] was 252 µM and the “Selectivity Index” value [2, 4] was 6.54.
For `O=C(Nc1ccc(-c2nc3ccccc3[nH]2)cc1)C1CC1` [Compound 2, N-[4-(1H-benzimidazol-2-yl)phenyl]cyclopropanecarboxamide], the CC50 at 3 days [1] was 148 µM, the IC50 [2, 3] was 39.3 µM and the “Selectivity Index” value [2, 4] was 3.77.
`O=C(Nc1ccc(-c2nc3ccccc3[nH]2)cc1)c1ccc(F)cc1` [Compound 14, N-[4-(1H-benzimidazol-2-yl)phenyl]-4-fluorobenzamide] showed a CC50 at 3 days [1] of 133 µM and an IC50 [2, 3] greater than 25 µM.
With `O=C(Cc1ccccc1)Nc1ccc(-c2nc3ccccc3[nH]2)cc1` [Compound 7, N-[4-(1H-benzimidazol-2-yl)phenyl]-2-phenylacetamide] the CC50 at 3 days [1] was greater than 400 µM and the IC50 [2, 3] was greater than 25 µM.
`O=C(Nc1ccc(-c2nc3ccccc3[nH]2)cc1)c1ccccc1F` [Compound 13, N-[4-(1H-benzimidazol-2-yl)phenyl]-2-fluorobenzamide] showed a CC50 at 3 days [1] of 98.1 µM and an IC50 [2, 3] greater than 25 µM.
`O=C(Nc1cccc(-c2nc3cc4ccccc4cc3[nH]2)c1)c1ccco1` [Compound 50, N-[3-(1H-naphtho[2,3-d]imidazol-2-yl)phenyl]-2-furamide] showed a CC50 at 3 days [1] of 562 µM and an IC50 [2, 7] greater than 25 µM.
In the case of `O=C(Nc1cccc(-c2nc3ccccc3[nH]2)c1)c1ccco1` [Compound 62, N-[3-(1H-benzimidazol-2-yl)phenyl]-2-furamide], the CC50 at 3 days [1] is reported as 81.5 µM, the IC50 [2, 5] is reported as 50.2 µM and the “Selectivity Index” value [2, 6] is reported as 1.62.
With `O=C(CCc1ccccc1)Nc1ccc(-c2nc3cc4ccccc4cc3[nH]2)cc1` [Compound 49, N-[4-(1H-naphtho[2,3-d]imidazol-2-yl)phenyl]-3-phenylpropanamide] the CC50 at 3 days [1] was 154 µM, the IC50 [2, 7] was 22.1 µM and the “Selectivity Index” value ([2]; Table 11, Scaffold 2, CC50/IC50) was 6.99.
In the case of `O=C(Nc1ccc2[nH]c(-c3ccccc3)nc2c1)c1ccccc1` [Compound 53, N-(2-phenyl-1H-benzimidazol-5-yl)benzamide], the CC50 [1] is reported as 125 µM, the “Selectivity Index” value [2] is reported as 9.43 and the IC50 [2, 8] is reported as 13.2 µM.
In the case of `O=C(Nc1ccc(-c2nc3ccccc3[nH]2)cc1)c1ccc(-c2ccc(Cl)cc2)o1` [Compound 26, N-[4-(1H-benzimidazol-2-yl)phenyl]-5-(4-chlorophenyl)-2-furamide], the CC50 at 3 days [1] is reported as 44.3 µM, the IC50 [2, 3] is reported as 5.7 µM and the “Selectivity Index” value [2, 4] is reported as 7.77.
In the case of `O=C(Nc1ccc(-c2nc3ccccc3[nH]2)cc1)C1CCCC1` [Compound 17, N-[4-(1H-benzimidazol-2-yl)phenyl]cyclopentanecarboxamide], the CC50 at 3 days [1] is reported as 266 µM, the IC50 [2, 3] is reported as 13.4 µM and the “Selectivity Index” value [2, 4] is reported as 19.91.
`CC(=O)Nc1ccc(-c2nc3ccccc3[nH]2)cc1` [Compound 1, N-[4-(1H-benzimidazol-2-yl)phenyl]acetamide] gave a CC50 at 3 days [1] greater than 400 µM and an IC50 [2, 3] greater than 25 µM.
`CC(=O)Nc1ccc(C(=O)Nc2ccc(-c3nc4ccccc4[nH]3)cc2)cc1` [Compound 3, 4-(acetylamino)-N-[4-(1H-benzimidazol-2-yl)phenyl]benzamide] showed a CC50 at 3 days [1] greater than 400 µM and an IC50 [2, 3] greater than 25 µM.
In the case of `Cc1ccc(-c2nc3ccccc3[nH]2)cc1NC(=O)c1cc2ccccc2o1` [Compound 66, N-[5-(1H-benzimidazol-2-yl)-2-methylphenyl]-1-benzofuran-2-carboxamide], the CC50 at 3 days [1] is reported as 94.7 µM, the IC50 [2, 5] is reported as 8.52 µM and the “Selectivity Index” value [2, 6] is reported as 11.11.
`CC(=O)Nc1ccc(-c2nc3ccc(Cl)cc3[nH]2)cc1` [Compound 30, N-[4-(6-chloro-1H-benzimidazol-2-yl)phenyl]acetamide] showed a CC50 at 3 days [1] greater than 400 µM and an IC50 [2, 3] greater than 25 µM.
In the case of `Cn1cccc1-c1nc2cc(NC(=O)c3cccs3)ccc2[nH]1` [Compound 58, N-[2-(1-methyl-1H-pyrrol-2-yl)-1H-benzimidazol-5-yl]-2-thiophenecarboxamide], the CC50 at 3 days [1] is reported as 62.8 µM, the IC50 [2, 8] is reported as 23.7 µM and the “Selectivity Index” value [2, 9] is reported as 2.66.
For `CC(=O)Oc1ccc(C(=O)Nc2ccc(-c3nc4ccccc4[nH]3)cc2)cc1` [Compound 4, 4-({[4-(1H-benzimidazol-2-yl)phenyl]amino}carbonyl)phenyl acetate], the CC50 at 3 days [1] was 119 µM, the IC50 [2, 3] was 34.2 µM and the “Selectivity Index” value [2, 4] was 3.49.
Molecule `Cc1ccc2[nH]c(-c3ccc(NC(=O)COc4ccccc4)cc3)nc2c1` [Compound 38, N-[4-(5-methyl-1H-benzimidazol-2-yl)phenyl]-2-phenoxyacetamide] has a CC50 at 3 days [1] greater than 400 µM and an IC50 [2, 3] greater than 25 µM.
With `Cn1cccc1-c1nc2cc(NC(=O)c3ccccc3)ccc2[nH]1` [Compound 54, N-[2-(1-methyl-1H-pyrrol-2-yl)-1H-benzimidazol-5-yl]benzamide] the CC50 at 3 days [1] was 33.1 µM, the IC50 [2, 8] was 47.6 µM and the “Selectivity Index” value [2, 9] was 0.69.
Work on `Cc1ccc2[nH]c(-c3ccc(NC(=O)CCC(=O)O)cc3)nc2c1` [Compound 5, 4-{[4-(5-methyl-1H-benzimidazol-2-yl)phenyl]amino}-4-oxobutanoic acid] yielded a CC50 at 3 days [1] greater than 400 µM and an IC50 [2, 3] greater than 25 µM.
`O=C(Nc1ccc(-c2nc3ccccc3[nH]2)cc1)c1ccc(N2CCOCC2)c([N+](=O)[O-])c1` [Compound 18, N-[4-(1H-benzimidazol-2-yl)phenyl]-4-(4-morpholinyl)-3-nitrobenzamide] showed a CC50 at 3 days [1] of 11.1 µM and an IC50 [2, 3] greater than 25 µM.
In the case of `CCCCOc1cc(C(=O)NCCN(CC)CC)c2ccccc2n1` [Dibucaine, reference compound], the IC50 ([2]; read-out: IC50 for inhibition of virus-induced CPE) is reported as 4.5 µM.
